In ChEMBL document CHEMBL1201862, “PubChem BioAssay data set” (2004):
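Test compounds were applied to cells in 96-well plates for 48 hours at 5 doses. GI50: concentration for 50% inhibition of growth.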 Activity calls are given as the source filed them. Rule as the data show it: active = GI50 up to about 1.1 µM and inactive = higher.

Assays:
Assay in all cases: DTP human tumour cell line panel, 48 h
CCRF-CEM = system: CCRF-CEM
NCI-H226 = system: NCI-H226
NCI-H522 = system: NCI-H522
TK-10 = system: TK-10
A549 = system: A549
SF-268 = system: SF-268
NCI-H460 = system: NCI-H460
HCT-15 = system: HCT-15
BT-549 = system: BT-549
UACC-257 = system: UACC-257
SNB-75 = system: SNB-75
OVCAR-8 = system: OVCAR-8
SK-MEL-5 = system: SK-MEL-5
MDA-N = system: MDA-N
T47D = system: T47D
SK-MEL-2 = system: SK-MEL-2
KM12 = system: KM12
Malme-3M = system: Malme-3M
SK-OV-3 = system: SK-OV-3

Compound | GI50 (CCRF-CEM) | GI50 (NCI-H226) | GI50 (NCI-H522) | GI50 (TK-10) | GI50 (A549) | GI50 (SF-268) | GI50 (NCI-H460) | GI50 (HCT-15) [µM] | GI50 (BT-549) | GI50 (UACC-257) | GI50 (SNB-75) | GI50 (OVCAR-8) | GI50 (SK-MEL-5) | GI50 (MDA-N) | GI50 (T47D) | GI50 (SK-MEL-2) | GI50 (KM12) | GI50 (Malme-3M) | GI50 (SK-OV-3)
Cc1nn(C(=O)c2ccccc2O)c2c1C(c1ccc([N+](=O)[O-])cc1)SC(=N)N2 (configuration not stated) | 3.32 µM (inactive) | > 4.12 µM (inactive) | 5.6 µM (inactive) | > 4.5 µM (inactive) | 1.47 µM (inactive) | 6.68 µM (inactive) | 3.79 µM (inactive) | 5.14 | 7.8 µM (inactive) | 3.21 µM (inactive) | 0.769 µM (active) | 4 µM (inactive) | > 6.43 µM (inactive) | 2.89 µM (inactive) | 5.71 µM (inactive) | > 5.46 µM (inactive) | 5.36 µM (inactive) | 4.42 µM (inactive) | 6.38 µM (inactive)
C/C=C\C(C)=C/C(C)C(=O)CC(O)CC1CC(=O)NC(=O)C1 (configuration not stated) | 10.1 µM (inactive) | 35.5 µM (inactive) | 2.01 µM (inactive) | 49.2 µM (inactive) | 21.5 µM (inactive) | 10.5 µM (inactive) | 14.8 µM (inactive) | 13.4 | 34.2 µM (inactive) | 22.2 µM (inactive) | 5.27 µM (inactive) | 8.71 µM (inactive) | 17.9 µM (inactive) | 19.5 µM (inactive) | 28.1 µM (inactive) | 13.6 µM (inactive) | 14.6 µM (inactive) |  | 5.77 µM (inactive)
FC1(F)ON2CCc3ccccc3C2[C@H]1c1ccccc1 (some centres not stated) | > 100 µM (inactive) | 35.8 µM (inactive) | > 10 µM (inactive) | > 10 µM (inactive) | > 10 µM (inactive) | > 10 µM (inactive) | > 10 µM (inactive) | > 10 | > 10 µM (inactive) | > 10 µM (inactive) | 16.7 µM (inactive) | 39.9 µM (inactive) | > 10 µM (inactive) | > 10 µM (inactive) | 55.8 µM (inactive) | > 10 µM (inactive) | > 10 µM (inactive) | 2.22 µM (inactive) | > 10 µM (inactive)
CCN(CC)CCn1c(=O)c2ccccc2n2c3c(=O)n(C)c(=O)n(C)c3nc12 | 0.547 µM (active) | 1.16 µM (inactive) | 2.43 µM (inactive) | 19.6 µM (inactive) | 0.321 µM (active) | 2.07 µM (inactive) | 0.148 µM (active) | 15.4 | 1.19 µM (inactive) | 3.46 µM (inactive) | 1.64 µM (inactive) | 1.84 µM (inactive) | 1.17 µM (inactive) | 4.85 µM (inactive) | 2.15 µM (inactive) | 2.82 µM (inactive) | 1.77 µM (inactive) | 2.07 µM (inactive) | 1.37 µM (inactive)
Cc1ccc2c(c1)C(=O)/C(=N/Nc1ccc(Cl)cc1)CCO2 | 46.7 µM (inactive) | > 100 µM (inactive) | 56.1 µM (inactive) | > 100 µM (inactive) | 94.6 µM (inactive) | > 100 µM (inactive) | 92.9 µM (inactive) | 60 | > 100 µM (inactive) | > 100 µM (inactive) | > 100 µM (inactive) | > 100 µM (inactive) | 23.3 µM (inactive) | 65.3 µM (inactive) | 13.3 µM (inactive) | 21.2 µM (inactive) | 75 µM (inactive) | 46.7 µM (inactive) | > 100 µM (inactive)
COc1ccc2c(c1)N=C1CSC(c3cc([N+](=O)[O-])ccc3Cl)N1C2 (configuration not stated) |  | 62.8 µM (inactive) | 21.5 µM (inactive) | 21.4 µM (inactive) | 30.9 µM (inactive) | 34.5 µM (inactive) | 19.4 µM (inactive) | 28.6 | 26.2 µM (inactive) | 15.8 µM (inactive) | 19.2 µM (inactive) | 29 µM (inactive) | 40.6 µM (inactive) | 20.1 µM (inactive) | 29.5 µM (inactive) | 18.2 µM (inactive) | 19 µM (inactive) | 23.2 µM (inactive) | 25.2 µM (inactive)
